The source of these data is US9227971B2, “Pyrazolo[1,5-a]pyrimidine compounds as mTOR inhibitors” (Merck Sharp & Dohme Corp., priority 2010, dated 2016).

Test [1] has as its system phosphorylated 4E-BP1 Thr37/46 (p4E-BP1 Thr37/46), mTORC1 activity, PC3 cells. Description: mTOR target engagement assay, immunofluorescent cell-based, p4E-BP1 Thr37/46 readout (mTORC1 activity). To be noted: Homo sapiens, read-out: p4E-BP1 Thr37/46 IC50. In outline:
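Cell-based immunofluorescence in PC3 cells: serially diluted compounds (0.25% DMSO, 5% FBS) applied for ninety minutes at 37° C before fixation and overnight 4° C staining of p4E-BP1 Thr37/46. Untreated DMSO wells set maximal phosphorylation; IC50 obtained by logistic fitting.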

Test [2] relates to phosphorylated AKT Ser473 (pAKT S473), mTORC2 activity, PC3 cells. Description: mTOR target engagement assay, immunofluorescent cell-based, pAKT S473 readout (mTORC2 activity). To be noted: Homo sapiens. A digest of the protocol: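 After blocking, cells were stained overnight at 4 °C with anti-pAKT S473 antibody, then a fluorescent secondary; inhibition was read as reduced fluorescence intensity.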

Where [3] appears, read: PC-3, PC3 cells, compound treatment ninety minutes at 37° C.

Like-named read-outs stand apart in the source and are kept apart here.

Regarding `CC(=O)c1c([C@@H]2C[C@H]3CC[C@@H](C2)N3C(=O)CO)nc2c(-c3ccc(-c4ncc[nH]4)c(F)c3)cnn2c1N` [Compound 6.40, 1-((1R,3s,5S)-3-(6-acetyl-7-amino-3-(3-fluoro-4-(1H-imidazol-2-yl)phenyl)pyrazolo[1,5-a]pyrimidin-5-yl)-8-azabicyclo[3.2.1]octan-8-yl)-2-hydroxyethanone], the IC50 in test [1] (PC-3, Table 6-1, PC3 cells) fell in the range of 1 to 100 nM; in test [2] (PC-3, Table 6-1, PC3 cells), 1 to 100 nM.
As for `CS(=O)(=O)c1c([C@@H]2C[C@H]3CC[C@@H](C2)N3C(=O)c2nnc[nH]2)nc2c(-c3ccc(-c4ccccn4)cc3)cnn2c1N` [Compound 3.31, ((1R,3s,5S)-3-(7-amino-6-(methylsulfonyl)-3-(4-(pyridin-2-yl)phenyl)pyrazolo[1,5-a]pyrimidin-5-yl)-8-azabicyclo[3.2.1]octan-8-yl)(4H-1,2,4-triazol-3-yl)methanone], the IC50 in test [1] (PC-3, Table 3-1, PC3 cells) was 100 to 1000 nM; in test [2] (PC-3, Table 3-1, PC3 cells), 1 to 100 nM.
As for `CC(=O)c1c([C@@H]2C[C@H]3CC[C@@H](C2)N3C(=O)CO)nc2c(-c3cnc(-c4ccccc4)c(O)c3)cnn2c1N` [Compound 1.1.32, 1-((1R,3s,5S)-3-(6-acetyl-7-amino-3-(5-hydroxy-6-phenylpyridin-3-yl)pyrazolo[1,5-a]pyrimidin-5-yl)-8-azabicyclo[3.2.1]octan-8-yl)-2-hydroxyethanone], the IC50 in test [1] (setting [3]) and in test [2] (setting [3]) was 1000 to 10000 nM each time.
Regarding `CC(=O)c1c([C@@H]2C[C@H]3CC[C@@H](C2)N3C(=O)CO)nc2c(-c3ccc(C#CC4CC4)nc3)cnn2c1N` [Compound 8.61, 1-((1R,3s,5S)-3-(6-acetyl-7-amino-3-(6-(cyclopropylethynyl)pyridin-3-yl)pyrazolo[1,5-a]pyrimidin-5-yl)-8-azabicyclo[3.2.1]octan-8-yl)-2-hydroxyethanone], the IC50 in test [1] (PC-3, PC3 cells) was in the range of 100 to 1000 nM; in test [2] (PC-3, PC3 cells), 100 to 1000 nM.
Turning to `CC(=O)c1c([C@@H]2C[C@H]3CC[C@@H](C2)N3C(=O)c2nnc[nH]2)nc2c(-c3ccc(-c4ncc[nH]4)c(F)c3)cnn2c1N` [Compound 6.41, 1-(5-((1R,3s,5S)-8-(4H-1,2,4-triazole-3-carbonyl)-8-azabicyclo[3.2.1]octan-3-yl)-7-amino-3-(3-fluoro-4-(1H-imidazol-2-yl)phenyl)pyrazolo[1,5-a]pyrimidin-6-yl)ethanone], the IC50 in test [1] (PC-3, Table 6-1, PC3 cells) is 1 to 100 nM; in test [2] (PC-3, Table 6-1, PC3 cells), 1 to 100 nM.
Turning to `COc1ccc(-c2ccc(-c3cnn4c(N)c(C(C)=O)c([C@@H]5C[C@H]6CC[C@@H](C5)N6C(=O)CO)nc34)cn2)cc1CO` [Compound 1.1.36, 1-((1R,3s,5S)-3-(6-acetyl-7-amino-3-(6-(3-(hydroxymethyl)-4-methoxyphenyl)pyridin-3-yl)pyrazolo[1,5-a]pyrimidin-5-yl)-8-azabicyclo[3.2.1]octan-8-yl)-2-hydroxyethanone], the IC50 in test [1] (setting [3]) and in test [2] (setting [3]) was 1 to 100 nM throughout.
On to `CS(=O)(=O)c1c([C@@H]2C[C@H]3CC[C@@H](C2)N3C(=O)c2nnc(O)[nH]2)nc2c(-c3ccc(-c4ccccc4)nc3)cnn2c1N` [Compound 3.29, ((1R,3s,5S)-3-(7-amino-6-(methylsulfonyl)-3-(6-phenylpyridin-3-yl)pyrazolo[1,5-a]pyrimidin-5-yl)-8-azabicyclo[3.2.1]octan-8-yl)(5-hydroxy-4H-1,2,4-triazol-3-yl)methanone], for which the IC50 fell in the range of 100 to 1000 nM in test [1] (PC-3, Table 3-1, PC3 cells) and 100 to 1000 nM in test [2] (PC-3, Table 3-1, PC3 cells).
For `CC(=O)c1c([C@@H]2C[C@H]3CC[C@@H](C2)N3C(=O)c2nnc(N)[nH]2)nc2c(-c3ccc(-c4ncc[nH]4)nc3)cnn2c1N` [Compound 6.20, 1-(3-(6-(1H-imidazol-2-yl)pyridin-3-yl)-7-amino-5-((1R,3s,5S)-8-(5-amino-4H-1,2,4-triazole-3-carbonyl)-8-azabicyclo[3.2.1]octan-3-yl)pyrazolo[1,5-a]pyrimidin-6-yl)ethanone], the IC50 in test [1] (PC-3, Table 6-1, PC3 cells) fell in the range of 1 to 100 nM; in test [2] (PC-3, Table 6-1, PC3 cells) it was 1 to 100 nM.
